Assay results taken from ChEMBL document CHEMBL3046398, “Synthesis and Antifungal Activities of Furoxan Derivatives Designed as Novel Fungicide” (1998).

Columns and labels:
Type in all cases: functional
Blumeria graminis = test: Fungicidal activity against Blumeria graminis at 250 ppm relative to control
Phytophthora infestans = test: Fungicidal activity against Phytophthora infestans at 250 ppm relative to control
Puccinia recondita = test: Fungicidal activity against Puccinia recondita at 250 ppm relative to control
Botrytis cinerea = test: Fungicidal activity against Botryotinia fuckeliana at 250 ppm relative to control
Rhizoctonia solani = test: Fungicidal activity against Rhizoctonia solani at 250 ppm relative to control
Pyricularia oryzae = test: Fungicidal activity against Magnaporthe oryzae at 250 ppm relative to control

| Structure (SMILES) | Activity (Blumeria graminis) [%] | Activity (Phytophthora infestans) [%] | Activity (Puccinia recondita) [%] | Activity (Botrytis cinerea) [%] | Activity (Rhizoctonia solani) [%] | Activity (Pyricularia oryzae) [%] |
| --- | --- | --- | --- | --- | --- | --- |
| Cc1c(/C=N/Nc2ccc(Cl)cc2)no[n+]1[O-] | 34 | 45 | 67 | 71 | 37 | 0 |
| Cc1c(/C=N/c2ccccc2)no[n+]1[O-] | 15 | 73 | 17 | 62 | 5 | 7 |
| Cc1c(/C=N/c2ccc(Cl)cc2)no[n+]1[O-] | 53 | 77 | 67 | 52 | 0 | 29 |
| Cc1ccc(/N=C/c2no[n+]([O-])c2C)cc1C | 21 | 53 | 0 | 33 | 24 | 11 |
| Cc1c(/C=N/Nc2ccccc2)no[n+]1[O-] | 53 | 36 | 60 | 43 | 0 | 21 |
| [O-][n+]1onc(-c2ccc3ccccc3c2)c1-c1ccc2ccccc2c1 [3,4-DI(2-NAPHTHYL)FUROXAN] | 73 | 14 | 0 | 51 | 10 | 60 |
| [O-][n+]1onc(-c2ccc(Cl)cc2)c1-c1ccc(Cl)cc1 [3,4-DI(4-CHLOROPHENYL)FUROXAN] | 9 | 28 | 87 | 30 | 35 | 14 |
| [O-][n+]1onc(-c2ccc(Cl)cc2Cl)c1-c1ccc(Cl)cc1Cl [3,4-DI-(2,4-DICHLOROPHENYL)FUROXAN] | 0 | 7 | 0 | 0 | 16 | 38 |
| [O-][n+]1onc(-c2c(Cl)cccc2Cl)c1-c1c(Cl)cccc1Cl [3,4-DI-(2,6-DICHLOROPHENYL)FUROXAN] | 0 | 27 | 0 | 0 | 0 | 41 |
| [O-][n+]1onc(-c2ccccc2C(F)(F)F)c1-c1ccccc1C(F)(F)F [3,4-DI-(2-(TRIFLUOROMETHYL)PHENYL)FUROXAN] | 14 | 0 | 0 | 2 | 6 | 0 |
| [O-][n+]1onc(-c2ccccc2Cl)c1-c1ccccc1Cl [3,4-DI-(2-CHLOROPHENYL)FUROXAN] | 33 | 20 | 10 | 0 | 26 | 13 |
| [O-][n+]1onc(-c2cccnc2Cl)c1-c1cccnc1Cl [3,4-DI-(2-CHLOROPYRIDIN-3-YL)FUROXAN] | 0 | 27 | 10 | 0 | 11 | 19 |
| [O-][n+]1onc(-c2ccccc2F)c1-c1ccccc1F [3,4-DI-(2-FLUOROPHENYL)FUROXAN] | 0 | 0 | 0 | 0 | 0 | 6 |
| [O-][n+]1onc(-c2ccc(C(F)(F)F)cc2)c1-c1ccc(C(F)(F)F)cc1 [3,4-DI-(4-(TRIFLUOROMETHYL)PHENYL)FUROXAN] | 17 | 53 | 0 | 0 | 11 | 6 |
| Cc1ccc(-c2no[n+]([O-])c2-c2ccc(C)s2)s1 [3,4-DI-(5-METHYLTHIOPHEN-2-YL)FUROXAN] | 17 | 33 | 0 | 0 | 5 | 38 |
| Cc1c(Cn2cncn2)no[n+]1[O-] [3-METHYL-4-[(1,2,4-TRIAZOL-1-YL)METHYL]FUROXAN] | 25 | 11 | 0 | 8 | 0 | 4 |
| Cc1c(C(c2ccc(Cl)cc2)n2cncn2)no[n+]1[O-] (stereo not given) [4-[(4-CHLOROPHENYL)(1,2,4-TRIAZOL-1-YL)METHYL]-3-METHYLFUROXAN] | 25 | 37 | 0 | 0 | 0 | 16 |
| Cc1c(C(O)c2ccc(Cl)cc2)no[n+]1[O-] (stereo not given) [4-[(4-CHLOROPHENYL)HYDROXYMETHYL]-3-METHYLFUROXAN] | 39 | 20 | 0 | 25 | 0 | 0 |
| Cc1c(C(Cl)c2ccc(Cl)cc2)no[n+]1[O-] (stereo not given) [4-[CHLORO(4-CHLOROPHENYL)METHYL]-3-METHYLFUROXAN] | 8 | 0 | 0 | 0 | 0 | 21 |
| COc1ccc(C(O)c2no[n+]([O-])c2C)cc1 (stereo not given) [4-[HYDROXY(4-METHOXYPHENYL)METHYL]-3-METHYLFUROXAN] | 0 | 19 | 0 | 17 | 5 | 4 |
